In ChEMBL document CHEMBL2429761, “Discovery of ML314, a Brain Penetrant Non-Peptidic β-Arrestin Biased Agonist of the Neurotensin NTR1 Receptor” (ACS Med Chem Lett, 2013):

Experiments:
[1] = molecular target: G-protein coupled receptor 35 (Homo sapiens, UniProt Q9HC97); experiment: Agonist activity at GPR35 (unknown origin) expressed in human U2OS cells coexpressing beta-arrestin by GFP reporter gene assay; format: cell-based
[2] = molecular target: Neurotensin receptor type 2 (Homo sapiens, UniProt O95665); experiment: Agonist activity at NTR2 (unknown origin) expressed in human U2OS cells coexpressing beta-arrestin by GFP reporter gene assay; format: cell-based
[3] = molecular target: T1, Neurotensin receptor type 1 (Homo sapiens, UniProt P30989); experiment: Agonist activity at NTR1 (unknown origin) expressed in human U2OS cells coexpressing beta-arrestin by GFP reporter gene assay; format: cell-based
[4] = molecular target: T1, Neurotensin receptor type 1; experiment: Antagonist activity at NTR1 (unknown origin) expressed in human U2OS cells coexpressing beta-arrestin assessed as inhibition of ML314-induced effect by GFP reporter gene assay
[5] = molecular target: T1, Neurotensin receptor type 1
Description: Displacement of [125I]-neurotensin from NTR1 in HUVEC after 1 hr by gamma counting analysis

[6] = molecular target: T1, Neurotensin receptor type 1; experiment: Agonist activity at NTR1 (unknown origin) expressed in CHO cells assessed as stimulation of calcium flux relative to neurotensin (8 to 13); format: functional, cell-based
[7] = molecular target: T1, Neurotensin receptor type 1; experiment: Agonist activity at NTR1 (unknown origin) expressed in CHOK1 cells by beta-arrestin assay; format: cell-based, CHO-K1

Chain of Neurotensin receptor type 2 (O95665 whole entry): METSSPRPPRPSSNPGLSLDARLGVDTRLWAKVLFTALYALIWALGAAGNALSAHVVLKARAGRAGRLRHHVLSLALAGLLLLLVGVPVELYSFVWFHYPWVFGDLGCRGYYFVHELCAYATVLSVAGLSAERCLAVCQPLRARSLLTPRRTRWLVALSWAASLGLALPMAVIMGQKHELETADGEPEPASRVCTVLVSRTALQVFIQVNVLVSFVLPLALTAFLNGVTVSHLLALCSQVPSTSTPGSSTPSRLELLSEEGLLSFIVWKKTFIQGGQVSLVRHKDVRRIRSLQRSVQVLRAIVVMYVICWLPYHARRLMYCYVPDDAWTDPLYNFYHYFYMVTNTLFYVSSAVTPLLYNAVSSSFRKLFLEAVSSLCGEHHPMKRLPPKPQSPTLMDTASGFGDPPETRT
Chain of G-protein coupled receptor 35 (Q9HC97 whole entry): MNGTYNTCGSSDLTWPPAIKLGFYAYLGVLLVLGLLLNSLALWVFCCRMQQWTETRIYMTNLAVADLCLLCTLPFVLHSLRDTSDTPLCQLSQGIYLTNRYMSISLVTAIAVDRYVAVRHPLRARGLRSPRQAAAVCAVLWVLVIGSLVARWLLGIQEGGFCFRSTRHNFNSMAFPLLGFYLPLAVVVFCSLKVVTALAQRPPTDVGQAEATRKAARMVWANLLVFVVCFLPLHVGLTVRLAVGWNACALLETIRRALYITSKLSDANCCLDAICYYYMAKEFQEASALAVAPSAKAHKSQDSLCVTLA
T1 sequence (P30989 whole entry): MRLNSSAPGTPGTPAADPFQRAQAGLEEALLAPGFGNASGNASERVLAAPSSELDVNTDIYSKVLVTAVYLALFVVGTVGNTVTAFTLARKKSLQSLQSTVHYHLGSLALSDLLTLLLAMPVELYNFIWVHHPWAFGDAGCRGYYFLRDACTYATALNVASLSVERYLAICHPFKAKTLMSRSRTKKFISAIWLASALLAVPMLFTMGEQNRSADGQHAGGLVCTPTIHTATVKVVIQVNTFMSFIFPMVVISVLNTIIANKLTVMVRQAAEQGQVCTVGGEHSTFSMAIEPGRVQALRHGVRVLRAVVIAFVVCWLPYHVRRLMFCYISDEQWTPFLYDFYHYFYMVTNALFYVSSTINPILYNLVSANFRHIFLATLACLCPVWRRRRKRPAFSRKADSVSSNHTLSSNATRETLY

| EC50 [1] [µM] | EC50 [2] [µM] | EC50 [3] [µM] | IC50 [4] [µM] | IC50 [5] [µM] | SMILES | Emax [6] [%] | EC50 [7] [µM] |
| --- | --- | --- | --- | --- | --- | --- | --- |
| > 40 | > 80 | > 80 | – | – | COc1cc2nc(-c3ccccc3)nc(N3CCN(c4ccccc4F)CC3)c2cc1OC | – | – |
| > 40 | > 80 | > 80 | – | – | COc1cc2nc(C)nc(N3CCN(c4ccccc4OC)CC3)c2cc1OC | – | – |
| > 40 | > 80 | > 80 | – | – | COc1cc2nc(-c3ccccc3)nc(N3CCN(c4ccccc4)CC3)c2cc1OC | – | – |
| > 40 | > 80 | 8 | – | – | COc1cc2nc(C(C)C)nc(N3CCN(c4ccccc4OC)CC3)c2cc1OC | – | – |
| > 40 | > 80 | – | – | – | COc1cc2nc(C3CC3)nc(N3CCN(c4ccccc4Cl)CC3)c2cc1OC | – | – |
| > 40 | > 80 | > 80 | – | – | COc1cc2nc(C3CC3)nc(N3CCN(S(=O)(=O)c4ccccc4)CC3)c2cc1OC | – | – |
| > 40 | > 80 | – | – | – | COc1cc2nc(C3CC3)nc(N3CCN(C(=O)c4ccccc4OC)CC3)c2cc1OC | – | – |
| > 40 | > 80 | 14 | – | – | COc1cc2nc(CC3CC3)nc(N3CCN(c4ccccc4OC)CC3)c2cc1OC | – | – |
| > 40 | > 80 | > 80 | – | – | COc1cc2nc(CCN(C)C)nc(N3CCN(c4ccccc4OC)CC3)c2cc1OC | – | – |
| > 40 | > 80 | 26 | – | – | COc1cc2nc(C3CCC3)nc(N3CCN(c4ccccn4)CC3)c2cc1OC | – | – |
| – | – | – | 0.0501 | 0.00024 | COc1cccc(OC)c1-c1cc(C(=O)NC2(C(=O)O)C3CC4CC(C3)CC2C4)nn1-c1ccc(C(=O)N(C)CCCN(C)C)cc1C(C)C (stereo unspecified) | – | – |
| > 40 | > 80 | > 80 | – | – | COc1cc2ncnc(N3CCN(c4ccccc4OC)CC3)c2cc1OC | – | – |
| > 40 | > 80 | – | – | – | COc1cc2nc(C3CC3)nc(N3CCN(C(=O)c4ccccc4)CC3)c2cc1OC | – | – |
| > 40 | > 80 | 14 | – | – | COc1cc2nc(Cc3ccccc3)nc(N3CCN(c4ccccc4OC)CC3)c2cc1OC | – | – |
| > 40 | > 80 | > 80 | – | – | COc1cc2nc(-c3ccccc3)nc(N3CCN(c4ccccc4Cl)CC3)c2cc1OC | – | – |
| > 40 | > 80 | – | – | – | CCOc1ccccc1N1CCN(c2nc(C3CC3)nc3cc(OC)c(OC)cc23)CC1 | – | – |
| > 40 | > 80 | – | – | – | COc1ccccc1N1CCN(c2nc(C3CCC3)nc3cc4c(cc23)OCO4)CC1 | – | – |
| > 40 | > 80 | 12 | – | – | COc1cc2nc(C3CCC3)nc(N3CCN(c4ccccc4)CC3)c2cc1OC | – | – |
| > 40 | > 80 | – | – | – | COc1ccc2c(N3CCN(c4ccccc4OC)CC3)nc(C3CCC3)nc2c1 | – | – |
| > 40 | > 80 | 23 | – | – | COc1ccccc1N1CCN(c2nc(C3CCC3)nc3ccccc23)CC1 | – | – |

| EC50 [1] [µM] | EC50 [2] [µM] | EC50 [3] [µM] | IC50 [4] [µM] | IC50 [5] [µM] | SMILES | Emax [6] [%] | EC50 [7] [µM] |
| --- | --- | --- | --- | --- | --- | --- | --- |
| > 40 | > 80 | – | – | – | COc1ccc2nc(C3CCC3)nc(N3CCN(c4ccccc4OC)CC3)c2c1 | – | – |
| > 40 | > 80 | > 80 | – | – | COc1cc2nc(C3CC3)nc(N3CCNCC3)c2cc1OC | – | – |
| > 40 | > 80 | – | – | – | C=Cc1nc(N2CCN(c3ccccc3OC)CC2)c2cc(OC)c(OC)cc2n1 | – | – |
| > 40 | > 80 | – | – | – | COc1cc2nc(C3CCC3)nc(N3CCN(c4ccccc4C)CC3)c2cc1OC | – | – |
| > 40 | > 80 | – | – | – | COc1cc2nc(-c3ccccc3)nc(N3CCN(c4ccccc4OC)CC3)c2cc1OC | – | – |
| > 40 | > 80 | > 80 | – | – | CCOc1cc2c(N3CCN(c4ccccc4)CC3)nc(-c3ccccc3)nc2cc1OC | – | – |
| > 40 | > 80 | – | – | – | COc1cc2nc(CCN3CCN(c4ccccc4OC)CC3)nc(N3CCN(c4ccccc4OC)CC3)c2cc1OC | – | – |
| > 40 | > 80 | – | – | – | COc1ccc2nc(C3CC3)nc(N3CCN(c4ccccc4OC)CC3)c2c1 | – | – |
| > 40 | > 80 | – | – | – | COc1cc2nc(C3CC3)nc(N3CCN(Cc4ccc(C)cc4)CC3)c2cc1OC | – | – |
| > 40 | > 80 | 18 | – | – | COc1cc2nc(C3CCC3)nc(N3CCN(c4ccccc4F)CC3)c2cc1OC | – | – |
| > 40 | > 80 | – | – | – | COc1cc2nc(C3CCC3)nc(N3CCN(c4ccccc4OC)CC3)c2cc1OC | – | – |
| > 40 | > 80 | 12 | – | – | COc1cc2nc(C3CCC3)nc(N3CCN(c4ccccc4Cl)CC3)c2cc1OC | – | – |
| > 40 | > 80 | – | – | – | COc1cc2nc(-c3ccccc3)nc(N3CCN(c4ccc(F)cc4)CC3)c2cc1OC | – | – |
| > 40 | > 80 | – | – | – | COc1ccccc1CN1CCN(c2nc(C3CC3)nc3cc(OC)c(OC)cc23)CC1 | – | – |
| > 40 | > 80 | > 80 | – | – | CCOc1cc2c(N3CCN(c4ccccc4F)CC3)nc(-c3ccccc3)nc2cc1OC | – | – |
| > 40 | > 80 | – | – | – | COc1cc2nc(C3CCCC3)nc(N3CCN(c4ccccc4OC)CC3)c2cc1OC | – | – |
| > 40 | > 80 | – | – | – | COc1cc2nc(CC(C)C)nc(N3CCN(c4ccccc4OC)CC3)c2cc1OC | – | – |
| > 40 | > 80 | 75 | – | – | CCOc1cc2c(N3CCN(c4ccccc4[N+](=O)[O-])CC3)nc(-c3ccccc3)nc2cc1OC | – | – |
| > 40 | > 80 | > 80 | – | – | CCOc1cc2c(N3CCN(c4ccccc4OC)CC3)nc(-c3ccccc3)nc2cc1OC | – | – |
| > 40 | > 80 | 17 | – | – | CCCc1nc(N2CCN(c3ccccc3OC)CC2)c2cc(OC)c(OC)cc2n1 | – | – |

| SMILES | EC50 [1] [µM] | EC50 [2] [µM] | EC50 [3] [µM] | IC50 [4] [µM] | IC50 [5] [µM] | Emax [6] [%] | EC50 [7] [µM] |
| --- | --- | --- | --- | --- | --- | --- | --- |
| CCc1nc(N2CCN(c3ccccc3OC)CC2)c2cc(OC)c(OC)cc2n1 | > 40 | > 80 | – | – | – | – | – |
| COc1cccc(OC)c1-c1cc(C(=O)N[C@@H](CC(C)C)C(=O)O)nn1-c1ccnc2cc(Cl)ccc12 | – | – | 0.75 | – | – | 63 | > 33 |
